Test results reported in ChEMBL document CHEMBL3407416, “Discovery of (R)-8-(1-(3,5-difluorophenylamino)ethyl)-N,N-dimethyl-2-morpholino-4-oxo-4H-chromene-6-carboxamide (AZD8186): a potent and selective inhibitor of PI3Kβ and PI3Kδ for the treatment of PTEN-deficient cancers” (J Med Chem, 2015).

Tests used:
[1] = Intrinsic clearance in cryopreserved human hepatocytes measured per 10^6 cells; format: ADME, cell-based, Hepatocyte; conditions: read-out: CLH
[2] = biological target: Phosphatidylinositol 4,5-bisphosphate 3-kinase catalytic subunit gamma isoform (Homo sapiens, UniProt P48736); test: Inhibition of human recombinant PI3Kgamma using PIP2 by Kinase-Glo Plus assay
[3] = biological target: T1, Phosphatidylinositol 4,5-bisphosphate 3-kinase catalytic subunit beta isoform (Homo sapiens, UniProt P42338); test: Inhibition of PI3Kbeta in PTEN-null human MDA-MB-468 cells assessed as inhibition of Akt phosphorylation after 2 hrs; format: cell-based
[4] = biological target: T1, Phosphatidylinositol 4,5-bisphosphate 3-kinase catalytic subunit beta isoform; test: Inhibition of human recombinant PI3Kbeta using PIP2 by Kinase-Glo Plus assay
[5] = Lipophilicity, log D of the compound at pH 7.4 by shake-flask method; format: physicochemical; conditions: buffer
[6] = biological target: T2, Phosphatidylinositol 4,5-bisphosphate 3-kinase catalytic subunit alpha isoform (Homo sapiens, UniProt P42336); test: Inhibition of human recombinant PI3Kalpha using PIP2 by Kinase-Glo Plus assay
Target sequence in this assay (P42336 whole entry, canonical isoform): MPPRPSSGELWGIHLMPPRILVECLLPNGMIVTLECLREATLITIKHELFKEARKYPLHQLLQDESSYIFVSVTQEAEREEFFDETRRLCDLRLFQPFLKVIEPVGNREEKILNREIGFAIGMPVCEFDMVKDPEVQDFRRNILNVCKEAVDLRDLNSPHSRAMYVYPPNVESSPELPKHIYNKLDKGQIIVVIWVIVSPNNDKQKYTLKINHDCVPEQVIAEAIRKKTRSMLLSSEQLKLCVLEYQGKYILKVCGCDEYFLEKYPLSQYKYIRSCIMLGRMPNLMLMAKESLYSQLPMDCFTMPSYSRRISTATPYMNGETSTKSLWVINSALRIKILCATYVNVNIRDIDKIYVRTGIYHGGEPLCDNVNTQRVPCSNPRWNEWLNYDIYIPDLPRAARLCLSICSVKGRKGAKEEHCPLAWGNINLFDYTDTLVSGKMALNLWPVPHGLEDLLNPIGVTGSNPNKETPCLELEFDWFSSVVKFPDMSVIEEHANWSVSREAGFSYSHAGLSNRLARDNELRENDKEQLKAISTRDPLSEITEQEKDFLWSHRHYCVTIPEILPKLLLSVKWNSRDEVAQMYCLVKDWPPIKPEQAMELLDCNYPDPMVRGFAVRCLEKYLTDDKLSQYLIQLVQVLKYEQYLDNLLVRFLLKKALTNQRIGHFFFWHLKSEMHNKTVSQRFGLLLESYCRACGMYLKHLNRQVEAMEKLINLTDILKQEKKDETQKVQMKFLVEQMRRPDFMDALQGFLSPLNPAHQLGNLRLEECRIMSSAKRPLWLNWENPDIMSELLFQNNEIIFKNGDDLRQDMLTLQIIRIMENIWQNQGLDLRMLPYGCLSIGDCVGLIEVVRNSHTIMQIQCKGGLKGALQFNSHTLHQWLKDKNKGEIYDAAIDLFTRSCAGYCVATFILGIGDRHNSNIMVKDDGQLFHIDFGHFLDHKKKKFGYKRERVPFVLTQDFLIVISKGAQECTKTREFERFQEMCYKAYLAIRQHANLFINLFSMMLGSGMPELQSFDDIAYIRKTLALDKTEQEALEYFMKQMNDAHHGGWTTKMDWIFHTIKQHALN

[7] = biological target: T3, Phosphatidylinositol 4,5-bisphosphate 3-kinase catalytic subunit delta isoform (Homo sapiens, UniProt O00329); test: Inhibition of human recombinant PI3Kdelta using PIP2 by Kinase-Glo Plus assay
T3 sequence (O00329 whole entry): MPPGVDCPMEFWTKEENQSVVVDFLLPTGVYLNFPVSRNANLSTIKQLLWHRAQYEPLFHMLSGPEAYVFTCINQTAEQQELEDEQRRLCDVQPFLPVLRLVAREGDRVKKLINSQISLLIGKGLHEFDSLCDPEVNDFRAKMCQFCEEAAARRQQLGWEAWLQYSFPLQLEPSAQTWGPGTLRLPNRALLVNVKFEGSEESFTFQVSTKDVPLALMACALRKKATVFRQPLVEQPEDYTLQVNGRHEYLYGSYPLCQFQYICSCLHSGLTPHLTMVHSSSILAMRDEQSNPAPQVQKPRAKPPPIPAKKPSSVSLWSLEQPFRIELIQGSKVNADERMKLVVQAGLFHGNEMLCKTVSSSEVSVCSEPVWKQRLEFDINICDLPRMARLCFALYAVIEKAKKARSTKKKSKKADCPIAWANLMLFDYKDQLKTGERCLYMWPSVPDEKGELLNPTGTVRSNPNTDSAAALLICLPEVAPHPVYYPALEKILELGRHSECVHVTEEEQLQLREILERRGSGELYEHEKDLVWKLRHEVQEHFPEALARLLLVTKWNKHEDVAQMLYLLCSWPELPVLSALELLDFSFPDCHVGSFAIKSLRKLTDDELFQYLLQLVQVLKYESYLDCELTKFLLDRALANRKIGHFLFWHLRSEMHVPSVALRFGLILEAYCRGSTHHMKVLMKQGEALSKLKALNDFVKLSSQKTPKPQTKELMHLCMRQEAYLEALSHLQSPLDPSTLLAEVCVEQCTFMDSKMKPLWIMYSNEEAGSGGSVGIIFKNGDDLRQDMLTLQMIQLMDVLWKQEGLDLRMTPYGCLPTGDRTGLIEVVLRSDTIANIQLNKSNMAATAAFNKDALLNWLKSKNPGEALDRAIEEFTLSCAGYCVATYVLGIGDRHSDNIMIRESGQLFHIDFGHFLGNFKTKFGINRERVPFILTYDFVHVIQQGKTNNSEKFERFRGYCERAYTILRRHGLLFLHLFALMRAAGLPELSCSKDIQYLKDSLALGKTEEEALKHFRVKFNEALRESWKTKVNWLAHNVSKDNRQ

[8] = biological target: T2, Phosphatidylinositol 4,5-bisphosphate 3-kinase catalytic subunit alpha isoform; test: Inhibition of PI3Kalpha mutant human BT474 cells assessed as inhibition of Akt phosphorylation at […] after 2 hrs; format: cell-based; conditions: bt-474
Target sequence in this assay (P42336 whole entry, looked up, canonical isoform): as the sequence (P42336 whole entry, canonical isoform) above

[9] = Apparent permeability from apical to basolateral side of human Caco2 cells; format: ADME, cell-based; conditions: Caco-2, read-out: permeability

T1 sequence (P42338 whole entry, canonical isoform): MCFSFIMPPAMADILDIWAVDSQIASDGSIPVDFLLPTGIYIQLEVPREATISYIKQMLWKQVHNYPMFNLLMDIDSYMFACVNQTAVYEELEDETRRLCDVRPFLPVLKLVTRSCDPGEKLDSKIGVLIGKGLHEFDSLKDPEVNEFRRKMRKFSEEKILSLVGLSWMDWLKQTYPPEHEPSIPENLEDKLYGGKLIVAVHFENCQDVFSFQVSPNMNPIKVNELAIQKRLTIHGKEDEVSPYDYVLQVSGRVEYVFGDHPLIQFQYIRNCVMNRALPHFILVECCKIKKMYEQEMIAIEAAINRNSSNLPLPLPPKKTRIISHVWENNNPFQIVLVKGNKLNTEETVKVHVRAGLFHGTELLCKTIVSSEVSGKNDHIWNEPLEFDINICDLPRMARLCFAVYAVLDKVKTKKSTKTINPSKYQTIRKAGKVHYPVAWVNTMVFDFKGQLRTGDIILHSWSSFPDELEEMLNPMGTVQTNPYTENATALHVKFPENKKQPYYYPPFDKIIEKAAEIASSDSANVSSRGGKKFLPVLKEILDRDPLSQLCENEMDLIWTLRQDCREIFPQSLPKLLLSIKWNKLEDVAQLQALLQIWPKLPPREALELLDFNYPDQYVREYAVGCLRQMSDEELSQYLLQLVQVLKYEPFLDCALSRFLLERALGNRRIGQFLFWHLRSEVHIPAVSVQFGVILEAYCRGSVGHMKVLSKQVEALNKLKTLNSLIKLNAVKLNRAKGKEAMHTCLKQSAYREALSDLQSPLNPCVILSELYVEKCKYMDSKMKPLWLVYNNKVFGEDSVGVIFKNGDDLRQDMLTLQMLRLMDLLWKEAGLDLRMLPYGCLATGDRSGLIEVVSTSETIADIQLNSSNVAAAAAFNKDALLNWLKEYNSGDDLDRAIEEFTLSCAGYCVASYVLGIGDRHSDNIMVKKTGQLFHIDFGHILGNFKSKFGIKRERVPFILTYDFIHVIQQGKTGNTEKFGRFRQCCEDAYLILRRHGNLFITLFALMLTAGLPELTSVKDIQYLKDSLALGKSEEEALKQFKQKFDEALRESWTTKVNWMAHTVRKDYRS
Chain of Phosphatidylinositol 4,5-bisphosphate 3-kinase catalytic subunit gamma isoform (P48736 whole entry, canonical isoform): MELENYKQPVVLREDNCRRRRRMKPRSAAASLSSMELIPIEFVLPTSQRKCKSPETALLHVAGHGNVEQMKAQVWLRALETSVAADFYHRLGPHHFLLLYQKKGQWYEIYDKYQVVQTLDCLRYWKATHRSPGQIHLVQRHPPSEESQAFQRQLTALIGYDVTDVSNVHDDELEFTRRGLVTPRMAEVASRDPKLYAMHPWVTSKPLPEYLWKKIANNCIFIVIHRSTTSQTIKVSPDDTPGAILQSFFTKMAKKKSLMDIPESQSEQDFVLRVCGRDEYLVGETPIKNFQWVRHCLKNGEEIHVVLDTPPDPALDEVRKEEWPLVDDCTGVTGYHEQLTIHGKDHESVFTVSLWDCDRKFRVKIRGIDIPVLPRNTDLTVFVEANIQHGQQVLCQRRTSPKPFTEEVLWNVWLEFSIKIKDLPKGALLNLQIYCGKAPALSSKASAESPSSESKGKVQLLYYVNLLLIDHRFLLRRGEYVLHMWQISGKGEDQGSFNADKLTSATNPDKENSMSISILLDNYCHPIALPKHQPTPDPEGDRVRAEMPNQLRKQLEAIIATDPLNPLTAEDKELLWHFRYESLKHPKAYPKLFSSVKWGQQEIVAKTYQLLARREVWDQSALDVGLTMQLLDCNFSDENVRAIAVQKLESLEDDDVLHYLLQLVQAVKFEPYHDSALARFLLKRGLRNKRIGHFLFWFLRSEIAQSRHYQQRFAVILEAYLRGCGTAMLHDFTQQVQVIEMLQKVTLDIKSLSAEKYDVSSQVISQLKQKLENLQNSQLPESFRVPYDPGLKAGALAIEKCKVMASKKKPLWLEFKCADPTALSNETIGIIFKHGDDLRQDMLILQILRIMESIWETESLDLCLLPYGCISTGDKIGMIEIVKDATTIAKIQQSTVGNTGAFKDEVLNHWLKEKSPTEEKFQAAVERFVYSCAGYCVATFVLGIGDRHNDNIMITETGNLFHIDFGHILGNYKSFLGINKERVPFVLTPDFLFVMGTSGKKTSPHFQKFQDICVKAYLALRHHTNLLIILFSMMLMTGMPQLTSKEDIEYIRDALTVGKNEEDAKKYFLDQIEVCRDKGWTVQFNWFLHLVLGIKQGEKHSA

| Compound | hepatocyte CLint [1] | IC50 [2] | IC50 [3] | IC50 [4] | logD [5] | IC50 [6] | IC50 [7] | IC50 [8] | Papp A→B [9] |
| --- | --- | --- | --- | --- | --- | --- | --- | --- | --- |
| CCN(C)C(=O)c1cc(C(C)Nc2cc(F)cc(F)c2)c2oc(N3CCOCC3)cc(=O)c2c1 (racemic) | 5 µL/min/1e6 cells | 0.93 µM | 0.007 µM | 0.008 µM | 2.5 | 0.11 µM | 0.059 µM | 2.1 µM | – |
| CC(Nc1cc(F)cc(F)c1)c1cc(C(=O)N2CCCCC2)cc2c(=O)cc(N3CCOCC3)oc12 (racemic) | 21 µL/min/1e6 cells | 1 µM | 0.014 µM | 0.012 µM | 3.1 | 0.2 µM | 0.059 µM | 3.1 µM | – |
| CC(Nc1ccc(F)cc1)c1cc(C(=O)N(C)C)cc2c(=O)cc(N3CCOCC3)oc12 (racemic) | < 3 µL/min/1e6 cells | 13 µM | 0.128 µM | 0.018 µM | 1.5 | 0.81 µM | 0.11 µM | 12.4 µM | – |
| CCNC(=O)c1cc(C(C)Nc2cc(F)cc(F)c2)c2oc(N3CCOCC3)cc(=O)c2c1 (racemic) | < 4 µL/min/1e6 cells | 0.71 µM | 0.014 µM | 0.009 µM | 3.1 | 0.059 µM | 0.044 µM | 2.9 µM | – |
| COc1cc(F)cc(NC(C)c2cc(C(=O)N(C)C)cc3c(=O)cc(N4CCOCC4)oc23)c1 (racemic) | < 3 µL/min/1e6 cells | 1.6 µM | 0.015 µM | 0.01 µM | 1.9 | 0.16 µM | 0.061 µM | 1.7 µM | – |
| Cc1cc(F)cc(NC(C)c2cc(C(=O)N(C)C)cc3c(=O)cc(N4CCOCC4)oc23)c1 (racemic) | 6 µL/min/1e6 cells | 2.2 µM | 0.049 µM | 0.015 µM | 2.2 | 0.13 µM | 0.11 µM | 2.9 µM | – |
| C[C@@H](Nc1cc(F)c(F)c(F)c1)c1cc(C(=O)N(C)C)cc2c(=O)cc(N3CCOCC3)oc12 | < 4 µL/min/1e6 cells | 1.4 µM | – | – | – | 0.11 µM | 0.023 µM | 1.5 µM | – |
| C[C@@H](Nc1cc(F)cc(F)c1)c1cc(C(=O)N2CCC2)cc2c(=O)cc(N3CCOCC3)oc12 | < 3 µL/min/1e6 cells | 0.35 µM | – | – | 2.6 | 0.029 µM | 0.02 µM | 0.28 µM | 92 nm/s |
| C[C@@H](Oc1cc(F)cc(F)c1)c1cc(C(=O)N(C)C)cc2c(=O)cc(N3CCOCC3)oc12 | 7 µL/min/1e6 cells | 13 µM | 0.132 µM | 0.017 µM | 2.2 | 0.97 µM | 0.16 µM | 7.4 µM | 310 nm/s |
| CC(Nc1cccc(F)c1F)c1cc(C(=O)N(C)C)cc2c(=O)cc(N3CCOCC3)oc12 (racemic) | < 3 µL/min/1e6 cells | 4.2 µM | 0.024 µM | 0.013 µM | 1.9 | 0.37 µM | 0.076 µM | 2.2 µM | 130 nm/s |
| CC(Nc1cc(F)cc(F)c1)c1cc(C(=O)N2CCCC2)cc2c(=O)cc(N3CCOCC3)oc12 (racemic) | 6 µL/min/1e6 cells | 0.7 µM | 0.002 µM | 0.009 µM | 2.7 | 0.098 µM | 0.05 µM | 0.4 µM | 85 nm/s |
| CC(Nc1cc(F)ccc1F)c1cc(C(=O)N(C)C)cc2c(=O)cc(N3CCOCC3)oc12 (racemic) | 6 µL/min/1e6 cells | 6 µM | 0.06 µM | 0.019 µM | 1.8 | 0.45 µM | 0.15 µM | 7 µM | 120 nm/s |
| CC(Nc1cccc(Cl)c1)c1cc(C(=O)N(C)C)cc2c(=O)cc(N3CCOCC3)oc12 (racemic) | < 4 µL/min/1e6 cells | 0.7 µM | 0.009 µM | 0.01 µM | 2.5 | 0.085 µM | 0.073 µM | 0.79 µM | – |
| COCCN(C)C(=O)c1cc(C(C)Nc2cc(F)cc(F)c2)c2oc(N3CCOCC3)cc(=O)c2c1 (racemic) | 6 µL/min/1e6 cells | 2.6 µM | – | 0.011 µM | 2.2 | 0.29 µM | 0.16 µM | 2.6 µM | – |
| CC(Nc1cc(F)cc(F)c1)c1cc(C(=O)N2CCOCC2)cc2c(=O)cc(N3CCOCC3)oc12 (racemic) | < 3 µL/min/1e6 cells | 2.4 µM | 0.033 µM | 0.011 µM | 1.7 | 0.3 µM | 0.115 µM | 6 µM | 48 nm/s |
| CNC(=O)c1cc([C@@H](C)Nc2cc(F)cc(F)c2)c2oc(N3CCOCC3)cc(=O)c2c1 | < 3 µL/min/1e6 cells | 0.25 µM | 0.003 µM | 0.006 µM | 2.8 | 0.018 µM | 0.014 µM | 0.96 µM | 35 nm/s |
| CC(Nc1cc(F)cc(F)c1)c1cc(C(=O)N2CCC(O)CC2)cc2c(=O)cc(N3CCOCC3)oc12 (racemic) | < 3 µL/min/1e6 cells | 0.83 µM | 0.017 µM | 0.011 µM | 1.8 | 0.23 µM | 0.09 µM | 6.4 µM | 10 nm/s |
| C[C@H](Nc1cc(F)cc(F)c1)c1cc(C(=O)N(C)C)cc2c(=O)cc(N3CCO[C@@H](C)C3)oc12 | < 3 µL/min/1e6 cells | 2.9 µM | 0.012 µM | 0.009 µM | 2.6 | 0.13 µM | 0.079 µM | 2.6 µM | – |
| CC(Nc1ccc(F)c(Cl)c1)c1cc(C(=O)N(C)C)cc2c(=O)cc(N3CCOCC3)oc12 (racemic) | 8 µL/min/1e6 cells | 1.8 µM | 0.016 µM | 0.012 µM | 2.4 | 0.17 µM | 0.064 µM | 5.5 µM | – |
| CC(Nc1cc(Cl)cc(Cl)c1)c1cc(C(=O)N(C)C)cc2c(=O)cc(N3CCOCC3)oc12 (racemic) | 18 µL/min/1e6 cells | 0.63 µM | 0.017 µM | 0.01 µM | 3.2 | 0.11 µM | 0.052 µM | 1.9 µM | – |
| COCCNC(=O)c1cc(C(C)Nc2cc(F)cc(F)c2)c2oc(N3CCOCC3)cc(=O)c2c1 (racemic) | < 3 µL/min/1e6 cells | 0.52 µM | 0.031 µM | 0.009 µM | 2.1 | 0.057 µM | 0.054 µM | 13 µM | 2.8 nm/s |
| CC(Nc1cccc(F)c1)c1cc(C(=O)N(C)C)cc2c(=O)cc(N3CCOCC3)oc12 (racemic) | < 3 µL/min/1e6 cells | 2.6 µM | 0.032 µM | 0.012 µM | 1.9 | 0.22 µM | 0.073 µM | 2.4 µM | – |
| CC(c1cc(C(=O)N2CCCC2)cc2c(=O)cc(N3CCOCC3)oc12)N(C)c1cc(F)cc(F)c1 (racemic) | 12 µL/min/1e6 cells | 3.5 µM | 0.1 µM | 0.013 µM | 3.1 | 0.51 µM | 0.12 µM | 5.9 µM | – |
| CN(C)C(=O)c1cc(CN(C)c2cc(F)cc(F)c2)c2oc(N3CCOCC3)cc(=O)c2c1 | < 5 µL/min/1e6 cells | – | – | – | 2.6 | – | – | – | 360 nm/s |
| CCN(CC)C(=O)c1cc(C(C)Nc2cc(F)cc(F)c2)c2oc(N3CCOCC3)cc(=O)c2c1 (racemic) | 17 µL/min/1e6 cells | 1.2 µM | 0.016 µM | 0.01 µM | 3.2 | 0.15 µM | 0.071 µM | 3.2 µM | – |
| CC(Nc1cc(F)cc(F)c1)c1cc(C(=O)N(C)CCO)cc2c(=O)cc(N3CCOCC3)oc12 (racemic) | < 3 µL/min/1e6 cells | 0.53 µM | 0.015 µM | 0.01 µM | 1.5 | 0.09 µM | 0.062 µM | 6.9 µM | 10 nm/s |
